{"source": "paper PMC5799297", "about": "“Metabolic Hydrolysis of Aromatic Amides in Selected Rat, Minipig, and Human In Vitro Systems” (Scientific Reports, 2018)", "key": {"[1]": {"conditions": "cited from earlier work"}, "[2]": {"conditions": "human, in vivo; cited from earlier work"}, "[3]": {"experiment": "Amide hydrolysis by minipig liver microsomes", "conditions": "1 mg/ml protein, 0.5 µM amide, pH 7.4, up to 120 min, no NADPH", "excerpt": "(§1) Pooled subcellular fractions of male Sprague-Dawley rat liver S9 fractions (10 donors), male Sprague-Dawley Aroclor 1254 induced rat liver S9 fractions (20 donors), human liver S9 fractions (mixed gender 10 donors), male Gottingen minipig liver microsomes (3 donors) and male Gottingen minipig liver S9 fractions (3 donors) were purchased from BioreclamationIVT (West Sussex, UK). Cryopreserved primary human hepatocytes (mixed gender 10 donors) were also purchased from BioreclamationIVT. Human CES1b, CES1c and CES2 Supersomes and human liver microsomes (mixed gender 150 donors) were purchased from Corning (Flintshire, UK). […]\n(§2) LC-MS/MS analysis was performed using a Waters UPLC instrument with an Acquity^TM binary solvent manager, Acquity^TM 4-position heated column manager and 2777 Ultra High Pressure Autosampler coupled to a Xevo-TQ MS triple quadrupole mass spectrometer (Waters Ltd, Herts, UK) with an electrospray ionisation (ESI) source. […] Incubations where the total parent amide decreased below 80% of the t0 baseline sample or the amine metabolite was detected were determined to be hydrolysed."}, "AADAC": {"test_system": "AADAC", "conditions": "cited from earlier work"}, "[4]": {"excerpt": "as §1, §2"}}, "note": "Where two headings read alike, the source gives them in different places.", "data": [{"smiles": "CCCNC(C)C(=O)Nc1ccccc1C", "note": "(stereo not shown) [prilocaine, Prilocaine]", "values": [{"measurement": "amide hydrolysis in humans in vivo", "setting": "[1]", "value": "undergo hydrolysis"}]}, {"smiles": "Nc1ccc([N+](=O)[O-])c(C(F)(F)F)c1", "note": "[3-trifluoromethyl-4-nitroaniline]", "values": [{"measurement": "hepatotoxicity", "setting": "[2]", "value": "associated with hepatotoxicity"}]}, {"smiles": "CCC(=O)Nc1ccc(Cl)c(Cl)c1", "note": "[propanil, Propanil]", "values": [{"measurement": "amide hydrolysis", "setting": "[3]", "value": "successful hydrolysis"}, {"measurement": "amide hydrolysis in humans in vivo", "setting": "[1]; human", "value": "undergo hydrolysis"}]}, {"smiles": "CC(=O)Nc1ccc(O)cc1", "note": "[paracetamol, Paracetamol]", "values": [{"measurement": "dose hydrolysed in humans in vivo", "setting": "[1]", "value": "1–2%"}]}, {"smiles": "CC(C)C(=O)Nc1ccc([N+](=O)[O-])c(C(F)(F)F)c1", "note": "[flutamide, Flutamide]", "values": [{"measurement": "enzyme mainly responsible for hydrolysis", "setting": "AADAC", "value": "AADAC"}]}, {"smiles": "CC(O)(CS(=O)(=O)c1ccc(F)cc1)C(=O)Nc1ccc(C#N)c(C(F)(F)F)c1", "note": "(stereo not shown) [bicalutamide, Bicalutamide]", "values": [{"measurement": "hepatotoxicity", "setting": "[2]", "value": "few cases of hepatotoxicity"}]}, {"smiles": "O=C(CCl)Nc1ccccc1", "note": "[2-chloro-N-phenylacetamide]", "values": [{"measurement": "change in rate of hydrolysis as a result of Aroclor 1254 induction", "setting": "[4]", "value": "enhanced rate of hydrolysis"}]}, {"smiles": "CC(=O)Nc1ccccc1", "note": "[acetanilide, Acetanilide]", "values": [{"measurement": "amide hydrolysis in humans in vivo", "setting": "[1]", "value": "has been observed"}, {"measurement": "dose hydrolysed in humans in vivo", "setting": "[1]", "value": "approximately 10%"}]}]}
